Measured values taken from patent US9266897B2, “Derivatives of protoberberine biological alkaloids and use of same inhibiting ulcerative colitis” (Institute of Materia Medica, Chinese Academy of Medical …, priority 2011, dated 2016).
“Also recorded” adds a separate entry of the source. Marks after values point to notes of the source that are not given here.

Tests used:
xbp1 upstream promoter = assay: Transcriptional activation of pGL3-pxbp1 (dual luciferase reporter gene) in IEC-6 cells; format: cell-based; settings: Rattus norvegicus, IEC-6 cells transfected with pGL3-pxbp1, 36 h-48 h, read-out: EC50 of transcriptional activation effect on xbp1 gene
Description: (§1) (1) Method: IEC-6 cells in the period of vigorous growth were seed in 48 well plate at a density of 5×10^4 to disperse the cells uniform and then it was placed in a humidifying cell incubator filled with 5% CO2 at 37° C. to incubate. Plasmid transfection (0.6 μg/well) was carried out when the cells confluencing up to 70%-80%. After 4 h, each compound of 1×10^−5 mol/L was added into these wells (n=3), respectively, and incubated for another 36 h-48 h together with existing transfected cells. Luciferase activity detection on test samples was proceeded using dual luciferase report gene detection kit (Promega, USA).
as §1, with “logarithmic phase” for “vigorous growth”, “different concentrations” for “each compound”, “compounds 1, 2, 7, and 10 were” for “1×10^−5 mol/L was”, “added” for “added into these wells”

[1] = test system: C57/blc mice with DSS-induced UC; assay: DSS-induced acute UC in C57/blc mice; format: in vivo; settings: for colon histopathology (inflammatory lesion): HE×200
Description: (§2) (1) Method: In vivo test was carried out according to the literature: Y. Yoshioka, H. Akiyama, M. Nakano, T. Shoji, T. Kanda, Y. Ohtake, T. Takita, R. Matsuda, T. Maitani. Orally administered apple procyanidins protect against experimental inflammatory bowel disease in mice, international immunopharmacology, 2008, 1802-1807.
DAI is evaluated by weight loss, shape of stool, hematochezia, and other indicators; macroscopic score of colon tissue is evaluated by intestinal mucosal hyperemia, edema of intestinal wall, ulcer size, and other indicators. The lower the DAI and macroscopic score is, the more close to the physiological state of the normal animal. In Table 3: **p<0.01 when compared with the normal control group; ##p<0.01 when compared with the model group.

[2] = test system: SD rats with acetic acid-induced UC; assay: Acetic acid-induced acute UC in SD rats; format: in vivo
Description: as §2
Disease activity index (DAI) is evaluated by weight loss, shape of stool, hematochezia, and other indicators; macroscopic score of colon tissue is evaluated by intestinal mucosal hyperemia, edema of intestinal wall, ulcer size, and other indicators. The lower the DAI and macroscopic score is, the more close to the normal physiological state. In Table 1: **p<0.01 when compared with the normal control group; ##p<0.01 when compared with the model group.

[3] = Table 5, 300 mg/kg, model 3.39 ± 0.64
[4] = Table 5, 300 mg/kg, model 5.69 ± 1.12
[5] = Table 7, 300 mg/kg, model 3.85 ± 0.34
[6] = Table 7, 300 mg/kg, model 5.59 ± 1.01

With `CC(=O)CC1c2c(ccc3c2OCO3)C=C2c3cc4c(cc3CCN21)OCO4` (racemic) [Compound 7, (±)-8-acetonyldihydrocoptisine] the EC50 (xbp1 upstream promoter) was 221 nM, the “disease activity index (DAI) inhibitory rate in UC model” value ([1]; 500 mg/kg) was 64% and the “colon histopathology (inflammatory lesion)” value (“colon histopathology” for short) ([1]; HD group 500 mg/kg) was “significant improvement on the colon inflammatory lesion; also recorded: the lesion of inflammatory bowel diseases is more significantly improved”. The “colon histopathology” value ([1]; LD group 125 mg/kg) was “the inflammatory lesions of colon tissue also has a partial remission”, the “colon histopathology” value ([1]; MD group 250 mg/kg) was “the inflammatory lesions of colon tissue also has a partial remission” and the “Body weight (g) x ± SD end” value ([1]; Table 2, HD 500 mg/kg) was 21.57 ± 1.5 g. For the same compound, the “Body weight (g) x ± SD end” value ([1]; Table 2, MD 250 mg/kg) was 20.54 ± 2.1 g, the DAI ([1]; Table 3, HD 500 mg/kg, model 3.33 ± 0.54) was 1.33 ± 0.31## and the “macroscopic score of colon tissue” value ([1]; Table 3, HD 500 mg/kg, model 5.54 ± 1.23) was 2.05 ± 0.28##. For the same compound, the DAI ([1]; Table 3, LD 125 mg/kg, model 3.33 ± 0.54) was 3.01 ± 0.38, the “macroscopic score of colon tissue” value ([1]; Table 3, LD 125 mg/kg, model 5.54 ± 1.23) was 4.93 ± 0.61 and the DAI ([1]; Table 3, MD 250 mg/kg, model 3.33 ± 0.54) was 2.01 ± 0.27##. The “macroscopic score of colon tissue” value ([1]; Table 3, MD 250 mg/kg, model 5.54 ± 1.23) was 3.30 ± 0.66##, the “macroscopic and histopathological results of colon tissue” value ([2]; 300 mg/kg) was “good therapeutic effect on UC” and the “body weight change value compared with before administration (decreased by)” value ([2]; 300 mg/kg, model group decreased by 19.2%) was 10%. For the same compound, the macroscopic score ([2]; Table 1, 300 mg/kg) was 2.05 ± 0.45## and the DAI ([2]; Table 1, 300 mg/kg, model 3.15 ± 0.45) was 1.15 ± 0.22##.
With `C1=C2c3cc4c(cc3CCN2Cc2c1ccc1c2OCO1)OCO4` [Compound 1, dihydrocoptisine] the EC50 (xbp1 upstream promoter) was 2.29 nM, the “disease activity index (DAI) inhibitory rate in UC model” value ([1]; 300 mg/kg) was 69% and the “Body weight (g) x ± SD end” value ([1]; Table 4, HD 500 mg/kg) was 19.87 ± 1.0 g. For the same compound, the “Body weight (g) x ± SD end” value ([1]; Table 4, LD 75 mg/kg) was 21.15 ± 1.1 g, the “Body weight (g) x ± SD end” value ([1]; Table 4, MD 250 mg/kg) was 19.95 ± 1.6 g and the DAI [1, 3] was 2.33 ± 0.11##. The “macroscopic score of colon tissue” value [1, 4] was 2.66 ± 0.46##, the DAI ([1]; Table 5, LD 75 mg/kg, model 3.39 ± 0.64) was 2.99 ± 0.14# and the “macroscopic score of colon tissue” value ([1]; Table 5, LD 75 mg/kg, model 5.69 ± 1.12) was 4.93 ± 0.61. The DAI ([1]; Table 5, MD 150 mg/kg, model 3.39 ± 0.64) was 1.81 ± 0.27## and the “macroscopic score of colon tissue” value ([1]; Table 5, MD 150 mg/kg, model 5.69 ± 1.12) was 2.01 ± 0.16##.
For `C1=C2c3cc4c(cc3CCN2Cc2cc3c(cc21)OCO3)OCO4` [Compound 2, dihydropseudocoptisine], the EC50 (xbp1 upstream promoter) was 7.06 nM, the “disease activity index (DAI) inhibitory rate in UC model” value ([1]; 300 mg/kg) was 80% and the “Body weight (g) x ± SD end” value ([1]; Table 6, 300 mg/kg) was 26.17 ± 1.5 g. The DAI [1, 5] was 1.05 ± 0.26## and the “macroscopic score of colon tissue” value [1, 6] was 2.94 ± 0.21##.
`C=C(C(=O)CC)c1c2c(OC)c(OC)ccc2c(C)c2[n+]1CCc1cc3c(cc1-2)OCO3` [Compound 10] showed an EC50 (xbp1 upstream promoter) of 47.3 nM.
In the case of `O=C(O)c1cc(/N=N/c2ccc(S(=O)(=O)Nc3ccccn3)cc2)ccc1O` [SASP, reference compound], the “disease activity index (DAI) inhibitory rate in UC model” value ([1]; 300 mg/kg) is reported as 32%, the “Body weight (g) x ± SD end” value ([1]; Table 2, 300 mg/kg) is reported as 20.09 ± 0.9 g and the DAI ([1]; Table 3, 300 mg/kg, model 3.33 ± 0.54) is reported as 2.27 ± 0.43##. For the same compound, the “macroscopic score of colon tissue” value ([1]; Table 3, 300 mg/kg, model 5.54 ± 1.23) was 3.24 ± 0.77##, the “Body weight (g) x ± SD end” value ([1]; Table 4, 300 mg/kg) was 21.15 ± 0.6 g and the DAI [1, 3] was 2.54 ± 0.23##. For the same compound, the “macroscopic score of colon tissue” value [1, 4] was 2.95 ± 0.52##, the “Body weight (g) x ± SD end” value ([1]; Table 6, 300 mg/kg) was 25.09 ± 0.9 g and the DAI [1, 5] was 2.27 ± 0.43##. The “macroscopic score of colon tissue” value [1, 6] was 3.24 ± 0.77## and the “colon histopathology” value ([1]; positive drug SASP group) was “improvement of visible colitis lesions and partial recovery of structure of each layer”.
